Measurements as given in patent US20250289788A1, “HALOALKYL SULFONANILIDE COMPOUND AND HERBICIDE CONTAINING THE SAME” (SDS BIOTECH K.K., priority 2022, published 2025).

Key:
Assay type in all cases: in vivo
Ammannia multiflora (AM) = assay: Comparative Example: herbicidal efficacy test of treatment during growth stage under flooding conditions; settings: treatment during growth stage (14 days after sowing), day 21 after treatment
Text: (§1) The control compound a is described as Compound No. III-1 on page 245 of PLT 5, and the control compound b is described as Compound No. III-9 on page 245 of PTL 5. […] As an example, herbicidal efficacy against critical paddy field weeds such as Monochoria vaginalis (MV) and Ammannia multiflora (AM) as well as Oryza sativa (OS) chemical damage were compared and are specifically described below as a Comparative Example.
(§2) [Comparative Example] Herbicidal Efficacy Test of Treatment During Growth Stage […] Under Flooding Conditions
(§3) After each 40-cm^2 plastic cup was loaded with puddled paddy field soil, seeds of each of Monochoria vaginalis (MV) or Ammannia multiflora (AM) were sown and grown in a greenhouse. After plants were grown for 14 days, one rice plant (variety: Nippon-bare) at the 2-leaf stage was transplanted at a transplanting depth of 1 cm. Water was flooded to a depth of 3 cm, and wettable powder containing the present invention compound, which had been adjusted according to Formulation Example 1, or each control compound was diluted with distilled water and applied dropwise to the water surface. The amount applied was 125, 63, or 31 g of active ingredient per hectare. The test was conducted in two series. On day 21 after treatment, the herbicidal efficacy and chemical damage were examined according to the following criteria.
(§4) 9-10 . . . Herbicidal activity “Maximum”, 90% or higher herbicidal efficacy or chemical damage
(§5) 7 to 8 . . . Herbicidal activity “high”, 70% or higher and less than 90% herbicidal efficacy or chemical damage
(§6) 5 to 6 . . . Herbicidal activity “medium”, 50% or higher and less than 70% herbicidal efficacy or chemical damage
(§7) 0 to 4 . . . Herbicidal activity “none to low”, 0% or higher and less than 50% herbicidal efficacy or chemical damage

[1] = test system: Monochoria vaginalis (MV); assay: as above; settings: treatment during growth stage (14 days after sowing), day 21 after treatment
Text: as §1, §2, §3, §4, §5, §6, §7

Oryza sativa (OS) = assay: Comparative Example: chemical damage to transplanted rice under flooding conditions; settings: applied dropwise to water surface, day 21 after treatment
Text: as §1, §2, §3, §4, §5, §6, §7

[2] = test system: Schoenoplectiella juncoides (SJ); assay: Test Example 1: herbicidal effect test using paddy field flooding treatment; settings: dose 16 g a.i./ha, water surface application, 21 days after treatment
Description: (§8) <Test Example 1> Herbicidal Effect Test Using Paddy Field Flooding Treatment
(§9) After each 40-cm^2 plastic cup was loaded with puddled paddy field soil, seeds of each of the following species were sown and grown in a greenhouse: Echinochloa crus-galli var. oryzicola (EC), Schoenoplectiella juncoides (SJ), Monochoria vaginalis (MV), or Ammannia multiflora (AM). After plants were grown for 14 days, water was flooded to a depth of 3 cm, and a 10% wettable powder, which had been adjusted according to Formulation Example 1, was diluted with distilled water and applied dropwise to the water surface. The amount applied was 1000, 500, 250, 125, 63, 31, or 16 g of active ingredient per hectare. The test was conducted in two series. Herbicidal efficacy (degree (%) of suppression of growth of terrestrial part: 100 (complete death) to 0 (no action)) was investigated at 21 days after the treatment.

[3] = test system: Echinochloa crus-galli var. oryzicola (EC); assay: as above; settings: dose 1000 g a.i./ha, water surface application, 21 days after treatment
Description: as §8, §9

SMILES | herbicidal efficacy AM (score 0-10) (Ammannia multiflora (AM); 31 g a.i./ha) | herbicidal efficacy AM (score 0-10) (Ammannia multiflora (AM); 63 g a.i./ha) | herbicidal efficacy AM (score 0-10) (Ammannia multiflora (AM); 125 g a.i./ha) | herbicidal efficacy MV (score 0-10) ([1]; 31 g a.i./ha) | herbicidal efficacy MV (score 0-10) ([1]; 63 g a.i./ha) | herbicidal efficacy MV (score 0-10) ([1]; 125 g a.i./ha) | chemical damage to transplanted rice OS (score 0-10) (Oryza sativa (OS); 31 g a.i./ha) | chemical damage to transplanted rice OS (score 0-10) (Oryza sativa (OS); 63 g a.i./ha) | chemical damage to transplanted rice OS (score 0-10) (Oryza sativa (OS); 125 g a.i./ha) | herbicidal efficacy (degree (%) of suppression of growth of terrestrial part) [2] [%] | herbicidal efficacy (degree (%) of suppression of growth of terrestrial part) [3] [%]
CCOC(=O)N(c1ccccc1CN1CCc2ccccc2C1=O)S(=O)(=O)C(F)(F)F [Compound 3-139] | 10 | 10 | 10 | 7 | 10 | 10 | 0 | 0 | 0 | – | –
O=C1c2ccccc2CCN1Cc1ccccc1NS(=O)(=O)C(F)(F)F [Compound 3-1] | 10 | 10 | 10 | 10 | 10 | 10 | 0 | 0 | 0 | – | –
CC=CC(=O)N(c1ccccc1CN1CCc2c(F)ccc(F)c2C1=O)S(=O)(=O)C(F)(F)F [Compound 3-116] | – | – | – | – | – | – | – | – | – | ≥ 80 | –
O=C1Cc2cc(F)ccc2N1Cc1ccccc1NS(=O)(=O)C(F)(F)F [Compound 8-2] | – | – | – | – | – | – | – | – | – | – | ≥ 80
O=C1CCCCN1Cc1ccccc1NS(=O)(=O)C(F)(F)F [Compound a] | 10 | 10 | 10 | 10 | 10 | 10 | 6 | 10 | 10 | – | –
CCOC(=O)N(c1ccccc1CN1CCCCC1=O)S(=O)(=O)C(F)(F)F [Compound b] | 10 | 10 | 10 | 7 | 10 | 10 | 3 | 8 | 10 | – | –
